Reference: patent publication US20220264878A1, “HERBICIDAL COMPOSITION CONTAINING R-TYPE PYRIDYLOXY CARBOXYLIC ACID DERIVATIVE AND USE THEREOF” (Qingdao Kingagroot Chemical Compound Co., Ltd., priority 2019, published 2022)

Experiments:
Test in all cases: Post-emergence foliage spray, pot culture, fresh weight inhibition (Tables 1-48, 51-98, 101-148; 24 days)
Type in all cases: in vivo
[1] = test system: Sinapis arvensis
Summary of the method: (§1)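 Greenhouse pot-grown weeds (15 per pot, 3 pots, 4 replicates) at the 5–6-leaf (grasses) or 6–7-leaf (broadleaf) stage were sprayed once on foliage at 450 kg/ha spray volume, 0.3 MPa. Acetone solutions were diluted in 0.1% Tween-80. Aboveground fresh weight versus blank control was recorded after 24 days.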

[2] = test system: Capsella bursa-pastoris
Summary of the method: as §1

[3] = test system: Abutilon theophrasti
Summary of the method: as §1

[4] = test system: Xanthium strumarium
Summary of the method: as §1

[5] = test system: Setaria faberi
Summary of the method: as §1

[6] = test system: Setaria glauca; conditions: Table 84
Summary of the method: as §1

[7] = test system: Ipomoea purpurea; conditions: Table 98
Summary of the method: as §1

[8] = test system: Conyza Canadensis
Summary of the method: as §1

[9] = test system: Sonchus oleraceus L.
Summary of the method: as §1

[10] = test system: Sonchus arvensis
Summary of the method: as §1

[11] = test system: Cirsium setosum; conditions: Table 111
Summary of the method: as §1

[12] = test system: Solanum nigrum
Summary of the method: as §1

[13] = test system: Beckmannia syzigachne
Summary of the method: as §1

[14] = test system: Acalypha australis
Summary of the method: as §1

[15] = test system: Ammannia arenaria; conditions: Table 103
Summary of the method: as §1

[16] = test system: Chloris virgata
Summary of the method: as §1

[17] = test system: Stellaria media; conditions: Table 105
Summary of the method: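 Pot-grown weeds were thinned to 15 per pot (45 per treatment) and sprayed on foliage at the 5–6-leaf stage for grasses or the 6–7-leaf stage for broadleaves. Agents were dissolved in acetone with 0.1% Tween-80 and applied at 450 kg/ha spray volume and 0.3 MPa. Plants were then kept in a greenhouse. Above-ground fresh weight of survivors, with dead plants counted as zero, gave inhibition versus a solvent/emulsifier blank.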

Cc1nn(C)cc1C(=O)Oc1c(C(=O)c2ccc(C(F)(F)F)cc2S(C)(=O)=O)c(C)nn1C [bipyrazone]
Control effect (%) of B applied alone in corresponding dose ([1]; B 1.875 g a.i./ha): 9.9%
Control effect (%) of B applied alone in corresponding dose ([1]; B 3.75 g a.i./ha): 23.8%
Control effect (%) of B applied alone in corresponding dose ([1]; B 7.5 g a.i./ha): 50.8%
Control effect (%) of B applied alone in corresponding dose ([1]; B 15 g a.i./ha): 83.7%
Control effect (%) of B applied alone in corresponding dose ([2]; bipyrazone 18.75 g a.i./ha): 2.9%
Control effect (%) of B applied alone in corresponding dose ([2]; bipyrazone 37.5 g a.i./ha): 12.9%
Control effect (%) of B applied alone in corresponding dose ([2]; bipyrazone 75 g a.i./ha): 51.1%
Control effect (%) of B applied alone in corresponding dose ([2]; bipyrazone 150 g a.i./ha): 80.3%

CC(C)N1C(=O)c2ccccc2NS1(=O)=O [bentazone]
Control effect (%) of B applied alone in corresponding dose ([3]; bentazone 18.75 g a.i./ha): 5.9%
Control effect (%) of B applied alone in corresponding dose ([3]; bentazone 37.5 g a.i./ha): 11.8%
Control effect (%) of B applied alone in corresponding dose ([3]; bentazone 75 g a.i./ha): 49.0%
Control effect (%) of B applied alone in corresponding dose ([3]; bentazone 150 g a.i./ha): 69.1%
Control effect (%) of B applied alone in corresponding dose ([4]; B 18.75 g a.i./ha): 10.9%
Control effect (%) of B applied alone in corresponding dose ([4]; B 37.5 g a.i./ha): 16.1%
Control effect (%) of B applied alone in corresponding dose ([4]; B 75 g a.i./ha): 46.6%
Control effect (%) of B applied alone in corresponding dose ([4]; B 150 g a.i./ha): 76.5%

Cc1c(C(=O)c2cnn(C)c2O)ccc(S(C)(=O)=O)c1C1=NOCC1 [topramezone]
Control effect (%) of B applied alone in corresponding dose ([5]; B 1.875 g a.i./ha): 3.2%
Control effect (%) of B applied alone in corresponding dose ([5]; B 3.75 g a.i./ha): 11.7%
Control effect (%) of B applied alone in corresponding dose ([5]; B 7.5 g a.i./ha): 36.5%
Control effect (%) of B applied alone in corresponding dose ([5]; B 15 g a.i./ha): 75.4%
Control effect (%) of B applied alone in corresponding dose ([6]; 1.875 g a.i./ha): 7.3%
Control effect (%) of B applied alone in corresponding dose ([6]; 3.75 g a.i./ha): 10.6%
Control effect (%) of B applied alone in corresponding dose ([6]; 7.5 g a.i./ha): 35.8%
Control effect (%) of B applied alone in corresponding dose ([6]; 15 g a.i./ha): 72.3%

CC(C)N(C)S(=O)(=O)NC(=O)c1cc(-n2c(=O)cc(C(F)(F)F)n(C)c2=O)c(F)cc1Cl [saflufenacil]
Control effect (%) of B applied alone in corresponding dose ([7]; 3.75 g a.i./ha): 7.9%
Control effect (%) of B applied alone in corresponding dose ([7]; 7.5 g a.i./ha): 16.0%
Control effect (%) of B applied alone in corresponding dose ([7]; 15 g a.i./ha): 41.3%
Control effect (%) of B applied alone in corresponding dose ([7]; 30 g a.i./ha): 75.9%
Control effect (%) of B applied alone in corresponding dose ([8]; saflufenacil 3.75 g a.i./ha): 3.0%
Control effect (%) of B applied alone in corresponding dose ([8]; saflufenacil 7.5 g a.i./ha): 11.9%
Control effect (%) of B applied alone in corresponding dose ([8]; saflufenacil 15 g a.i./ha): 39.2%
Control effect (%) of B applied alone in corresponding dose ([8]; saflufenacil 30 g a.i./ha): 76.5%
Control effect (%) of B applied alone in corresponding dose ([9]; B 3.75 g a.i./ha): 5.4%
Control effect (%) of B applied alone in corresponding dose ([9]; B 7.5 g a.i./ha): 13.9%
Control effect (%) of B applied alone in corresponding dose ([9]; B 15 g a.i./ha): 40.9%
Control effect (%) of B applied alone in corresponding dose ([9]; B 30 g a.i./ha): 76.6%

CCOc1nc(F)cc2nc(S(=O)(=O)Nc3c(Cl)cccc3C(=O)OC)nn12 [cloransulam-methyl]
Control effect (%) of B applied alone in corresponding dose ([10]; cloransulam-methyl 1.875 g a.i./ha): 6.5%
Control effect (%) of B applied alone in corresponding dose ([10]; cloransulam-methyl 3.75 g a.i./ha): 15.0%
Control effect (%) of B applied alone in corresponding dose ([10]; cloransulam-methyl 7.5 g a.i./ha): 52.8%
Control effect (%) of B applied alone in corresponding dose ([10]; cloransulam-methyl 15 g a.i./ha): 72.9%
Control effect (%) of B applied alone in corresponding dose ([11]; 1.875 g a.i./ha): 13.6%
Control effect (%) of B applied alone in corresponding dose ([11]; 3.75 g a.i./ha): 23.1%
Control effect (%) of B applied alone in corresponding dose ([11]; 7.5 g a.i./ha): 53.8%
Control effect (%) of B applied alone in corresponding dose ([11]; 15 g a.i./ha): 71.9%

C[C@@H](Oc1nc(F)c(Cl)c(N)c1Cl)C(=O)[O-].[Na+] [Compound A3, A1 sodium salt]
Control effect (%) of A applied alone in corresponding dose ([12]; A 75 g a.i./ha): 16.9%
Control effect (%) of A applied alone in corresponding dose ([12]; A 150 g a.i./ha): 37.5%
Control effect (%) of A applied alone in corresponding dose ([5]; A 30 g a.i./ha): 32.5%
Control effect (%) of A applied alone in corresponding dose ([5]; A 60 g a.i./ha): 55.4%
Control effect (%) of A applied alone in corresponding dose ([1]; A 15 g a.i./ha): 33.2%
Control effect (%) of A applied alone in corresponding dose ([1]; A 30 g a.i./ha): 72.7%
Control effect (%) of A applied alone in corresponding dose ([13]; A 75 g a.i./ha): 23.0%
Control effect (%) of A applied alone in corresponding dose ([13]; A 150 g a.i./ha): 42.8%
Control effect (%) of A applied alone in corresponding dose ([9]; A 75 g a.i./ha): 33.8%
Control effect (%) of A applied alone in corresponding dose ([9]; A 150 g a.i./ha): 55.5%
Control effect (%) of A applied alone in corresponding dose ([11]; 30 g a.i./ha): 31.5%
Control effect (%) of A applied alone in corresponding dose ([11]; 60 g a.i./ha): 64.3%
Control effect (%) of A applied alone in corresponding dose ([14]; A 75 g a.i./ha): 20.7%
Control effect (%) of A applied alone in corresponding dose ([14]; A 150 g a.i./ha): 51.6%
Control effect (%) of A applied alone in corresponding dose ([15]; 75 g a.i./ha): 30.4%
Control effect (%) of A applied alone in corresponding dose ([15]; 150 g a.i./ha): 66.2%
Control effect (%) of A applied alone in corresponding dose ([4]; A 7.5 g a.i./ha): 40.8%
Control effect (%) of A applied alone in corresponding dose ([4]; A 15 g a.i./ha): 77.2%
Control effect (%) of A applied alone in corresponding dose ([16]; A 75 g a.i./ha): 22.0%
Control effect (%) of A applied alone in corresponding dose ([16]; A 150 g a.i./ha): 48.3%
Control effect (%) of A applied alone in corresponding dose ([17]; 7.5 g a.i./ha): 34.1%
Control effect (%) of A applied alone in corresponding dose ([17]; 15 g a.i./ha): 67.9%
